Experiments:
[1] = biological target: Casein kinase II subunit alpha' (Homo sapiens) (UniProt P19784); experiment: Inhibition of human CK2A2 at 100 nM using RRRDDDSDDD as substrate by [gamma-33P]-ATP assay
[2] = biological target: CDK8/Cyclin C (Homo sapiens) (UniProt P49336+P24863); experiment: Inhibition of human CDK8/cyclin-C at 100 nM using KKKVSRSGLYRSPSMPENLNRPR as substrate by [gamma-33P]-ATP assay; assay type: protein-complex assay
[3] = biological target: Mitogen-activated protein kinase 9 (Homo sapiens) (UniProt P45984); experiment: Inhibition of human JNK2 at 100 nM using ATF2 as substrate by [gamma-33P]-ATP assay
[4] = biological target: Death-associated protein kinase 3 (Homo sapiens) (UniProt O43293); experiment: Inhibition of human ZIPK at 100 nM using KKLNRTLSFAEPG as substrate by [gamma-33P]-ATP assay
[5] = biological target: PI3-kinase p110-delta/p85-alpha (Homo sapiens, UniProt O00329); experiment: Inhibition of recombinant human full length N-terminal GST-tagged PI3Kdelta (1 to 1044 residues)/PIK3R1 (1 to 724 residues) expressed in baculovirus expression system using PIP2 as substrate incubated for 2 hrs by ADP-Glo assay
[6] = biological target: Tyrosine-protein kinase Yes (Homo sapiens) (UniProt P07947); experiment: Inhibition of human YES at 100 nM using poly[Glu:Tyr] (4:1) as substrate by [gamma-33P]-ATP assay
[7] = biological target: Aurora kinase B (Homo sapiens) (UniProt Q96GD4); experiment: Inhibition of human Aurora B at 100 nM using [H-LRRASLG] as substrate by [gamma-33P]-ATP assay
[8] = biological target: TGF-beta receptor type-1 (Homo sapiens) (UniProt P36897); experiment: Inhibition of human ALK5 at 100 nM using casein as substrate by [gamma-33P]-ATP assay
[9] = biological target: Serine/threonine-protein kinase SIK1 (Homo sapiens) (UniProt P57059); experiment: Inhibition of human SIK1 at 100 nM using AMARAASAAALARRR as substrate by [gamma-33P]-ATP assay
[10] = biological target: Misshapen-like kinase 1 (Homo sapiens) (UniProt Q8N4C8); experiment: Inhibition of human MINK1 at 100 nM using MBP as substrate by [gamma-33P]-ATP assay
[11] = biological target: Ribosomal protein S6 kinase beta-1 (Homo sapiens) (UniProt P23443); experiment: Inhibition of human p70S6K at 100 nM using KKRNRTLTK as substrate by [gamma-33P]-ATP assay
[12] = biological target: Mitogen-activated protein kinase 8 (Homo sapiens) (UniProt P45983); experiment: Inhibition of human JNK1 at 100 nM using ATF2 as substrate by [gamma-33P]-ATP assay
[13] = biological target: Serine/threonine-protein kinase/endoribonuclease IRE2 (Homo sapiens) (UniProt Q76MJ5); experiment: Inhibition of human ERN2 at 100 nM using MBP as substrate by [gamma-33P]-ATP assay
[14] = biological target: Inactive tyrosine-protein kinase PEAK1 (Homo sapiens) (UniProt Q9H792); experiment: Inhibition of human PEAK1 at 100 nM using MBP as substrate by [gamma-33P]-ATP assay
[15] = biological target: Serine/threonine-protein kinase TAO2 (Homo sapiens) (UniProt Q9UL54); experiment: Inhibition of human TAOK2 at 100 nM using MBP as substrate by [gamma-33P]-ATP assay
[16] = biological target: Mitogen-activated protein kinase 3 (Homo sapiens) (UniProt P27361); experiment: Inhibition of human ERK1 at 100 nM using MBP as substrate by [gamma-33P]-ATP assay
[17] = biological target: Serine/threonine-protein kinase SIK2 (Homo sapiens) (UniProt Q9H0K1); experiment: Inhibition of human SIK2 at 100 nM using AMARAASAAALARRR as substrate by [gamma-33P]-ATP assay
[18] = biological target: Serine/threonine-protein kinase A-Raf (Homo sapiens) (UniProt P10398); experiment: Inhibition of human ARAF at 100 nM using MEK1 as substrate by [gamma-33P]-ATP assay
[19] = biological target: Discoidin domain-containing receptor 2 (Homo sapiens) (UniProt Q16832); experiment: Inhibition of human DDR2 at 100 nM using KKSRGDYMTMQIG as substrate by [gamma-33P]-ATP assay
[20] = biological target: Tyrosine-protein kinase Lyn (Homo sapiens) (UniProt P07948); experiment: Inhibition of human LYN at 100 nM using poly[Glu:Tyr] (4:1) as substrate by [gamma-33P]-ATP assay
[21] = biological target: Epithelial discoidin domain-containing receptor 1 (Homo sapiens) (UniProt Q08345); experiment: Inhibition of human DDR1 at 100 nM using KKSRGDYMTMQIG as substrate by [gamma-33P]-ATP assay
[22] = biological target: Mitogen-activated protein kinase kinase kinase 20 (Homo sapiens) (UniProt Q9NYL2); experiment: Inhibition of human ZAK at 100 nM using MBP as substrate by [gamma-33P]-ATP assay
[23] = Inhibition of PI3K/Akt/mTOR signaling in human HeLa cells assessed as reduction in S6 phosphorylation incubated for 24 hrs by Western blot analysis; assay type: cell-based
[24] = biological target: Vascular endothelial growth factor receptor 3 (Homo sapiens) (UniProt P35916); experiment: Inhibition of human FLT4 at 100 nM using poly[Glu:Tyr] (4:1) as substrate by [gamma-33P]-ATP assay
[25] = biological target: Serine/threonine-protein kinase Nek9 (Homo sapiens) (UniProt Q8TD19); experiment: Inhibition of human NEK9 at 100 nM using casein as substrate by [gamma-33P]-ATP assay
[26] = biological target: Mitogen-activated protein kinase kinase kinase 21 (Homo sapiens) (UniProt Q5TCX8); experiment: Inhibition of human MLK4 at 100 nM using MEK1 as substrate by [gamma-33P]-ATP assay
[27] = biological target: Tyrosine-protein kinase BTK (Homo sapiens) (UniProt Q06187); experiment: Inhibition of human BTK at 100 nM using KVEKIGEGTYGVVYK as substrate by [gamma-33P]-ATP assay
[28] = biological target: Serine/threonine-protein kinase haspin (Homo sapiens) (UniProt Q8TF76); experiment: Inhibition of human haspin at 100 nM using Histone H3 as substrate by [gamma-33P]-ATP assay
[29] = biological target: Serine/threonine-protein kinase Nek11 (Homo sapiens) (UniProt Q8NG66); experiment: Inhibition of human NEK11 at 100 nM using MBP as substrate by [gamma-33P]-ATP assay
[30] = biological target: Platelet-derived growth factor receptor alpha (Homo sapiens) (UniProt P16234); experiment: Inhibition of human PDGFRalpha at 100 nM using poly[Glu:Tyr] (4:1) as substrate by [gamma-33P]-ATP assay
[31] = biological target: Casein kinase I isoform gamma-1 (Homo sapiens) (UniProt Q9HCP0); experiment: Inhibition of human CK1gamma1 at 100 nM using KRRRAL[pS]VASLPGL as substrate by [gamma-33P]-ATP assay

Sequence of Serine/threonine-protein kinase Nek11 (Homo sapiens) (Q8NG66 whole entry): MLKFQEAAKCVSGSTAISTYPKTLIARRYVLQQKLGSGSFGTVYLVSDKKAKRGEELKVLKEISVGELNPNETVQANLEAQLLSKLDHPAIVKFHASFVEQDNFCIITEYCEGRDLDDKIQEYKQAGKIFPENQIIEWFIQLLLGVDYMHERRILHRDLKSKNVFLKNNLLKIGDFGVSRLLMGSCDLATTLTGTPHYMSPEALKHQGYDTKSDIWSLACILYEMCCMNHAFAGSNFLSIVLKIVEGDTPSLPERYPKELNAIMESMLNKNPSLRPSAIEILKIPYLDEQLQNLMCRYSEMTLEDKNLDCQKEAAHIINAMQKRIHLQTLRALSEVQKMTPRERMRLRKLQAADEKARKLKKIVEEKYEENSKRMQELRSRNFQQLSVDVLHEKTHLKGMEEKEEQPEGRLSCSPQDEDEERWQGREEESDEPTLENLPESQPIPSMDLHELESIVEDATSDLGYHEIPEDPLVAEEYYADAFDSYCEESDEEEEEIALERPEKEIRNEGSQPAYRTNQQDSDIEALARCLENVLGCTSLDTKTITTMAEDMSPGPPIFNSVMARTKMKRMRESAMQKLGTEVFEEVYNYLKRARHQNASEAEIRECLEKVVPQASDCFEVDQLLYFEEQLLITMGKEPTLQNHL
Sequence of Mitogen-activated protein kinase kinase kinase 21 (Homo sapiens) (Q5TCX8 whole entry): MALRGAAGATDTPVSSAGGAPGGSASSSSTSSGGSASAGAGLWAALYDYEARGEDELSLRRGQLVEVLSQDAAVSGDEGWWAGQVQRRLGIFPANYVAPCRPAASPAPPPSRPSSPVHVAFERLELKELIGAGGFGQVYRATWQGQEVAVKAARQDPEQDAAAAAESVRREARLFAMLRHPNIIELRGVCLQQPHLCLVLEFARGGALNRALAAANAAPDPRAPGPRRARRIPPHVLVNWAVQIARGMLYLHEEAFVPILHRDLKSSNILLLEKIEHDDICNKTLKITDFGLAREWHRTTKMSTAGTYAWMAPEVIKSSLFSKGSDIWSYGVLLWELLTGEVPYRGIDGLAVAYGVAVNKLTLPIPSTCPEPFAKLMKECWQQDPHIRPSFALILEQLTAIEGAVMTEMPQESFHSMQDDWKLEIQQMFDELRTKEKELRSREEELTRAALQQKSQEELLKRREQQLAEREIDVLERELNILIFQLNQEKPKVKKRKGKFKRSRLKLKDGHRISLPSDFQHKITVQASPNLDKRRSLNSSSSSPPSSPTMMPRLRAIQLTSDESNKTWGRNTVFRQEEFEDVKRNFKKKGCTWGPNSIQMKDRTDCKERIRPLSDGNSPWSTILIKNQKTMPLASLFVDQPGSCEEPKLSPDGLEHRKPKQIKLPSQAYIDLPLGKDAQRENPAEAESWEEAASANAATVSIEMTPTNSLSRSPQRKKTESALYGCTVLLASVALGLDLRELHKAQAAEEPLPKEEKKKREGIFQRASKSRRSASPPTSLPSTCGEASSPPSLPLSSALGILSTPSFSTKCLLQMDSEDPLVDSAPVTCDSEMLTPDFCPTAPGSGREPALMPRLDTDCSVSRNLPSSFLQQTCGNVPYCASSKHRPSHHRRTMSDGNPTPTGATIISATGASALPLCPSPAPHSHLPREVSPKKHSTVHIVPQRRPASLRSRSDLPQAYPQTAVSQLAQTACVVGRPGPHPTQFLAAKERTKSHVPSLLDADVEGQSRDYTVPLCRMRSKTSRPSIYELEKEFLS
Sequence of Mitogen-activated protein kinase 9 (Homo sapiens) (P45984 whole entry, looked up): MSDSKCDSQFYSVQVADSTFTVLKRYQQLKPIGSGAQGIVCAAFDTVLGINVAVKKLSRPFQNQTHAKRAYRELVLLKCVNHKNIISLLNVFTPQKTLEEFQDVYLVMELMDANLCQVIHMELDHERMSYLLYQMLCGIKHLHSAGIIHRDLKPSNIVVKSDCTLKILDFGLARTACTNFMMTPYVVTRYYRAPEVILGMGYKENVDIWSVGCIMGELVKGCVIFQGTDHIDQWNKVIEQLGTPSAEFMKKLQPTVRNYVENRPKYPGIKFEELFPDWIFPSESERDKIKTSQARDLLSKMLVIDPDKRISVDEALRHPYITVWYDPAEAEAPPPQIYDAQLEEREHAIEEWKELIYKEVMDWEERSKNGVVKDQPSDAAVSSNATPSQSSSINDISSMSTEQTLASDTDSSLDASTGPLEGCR
Sequence of Serine/threonine-protein kinase SIK2 (Homo sapiens) (Q9H0K1 whole entry, looked up): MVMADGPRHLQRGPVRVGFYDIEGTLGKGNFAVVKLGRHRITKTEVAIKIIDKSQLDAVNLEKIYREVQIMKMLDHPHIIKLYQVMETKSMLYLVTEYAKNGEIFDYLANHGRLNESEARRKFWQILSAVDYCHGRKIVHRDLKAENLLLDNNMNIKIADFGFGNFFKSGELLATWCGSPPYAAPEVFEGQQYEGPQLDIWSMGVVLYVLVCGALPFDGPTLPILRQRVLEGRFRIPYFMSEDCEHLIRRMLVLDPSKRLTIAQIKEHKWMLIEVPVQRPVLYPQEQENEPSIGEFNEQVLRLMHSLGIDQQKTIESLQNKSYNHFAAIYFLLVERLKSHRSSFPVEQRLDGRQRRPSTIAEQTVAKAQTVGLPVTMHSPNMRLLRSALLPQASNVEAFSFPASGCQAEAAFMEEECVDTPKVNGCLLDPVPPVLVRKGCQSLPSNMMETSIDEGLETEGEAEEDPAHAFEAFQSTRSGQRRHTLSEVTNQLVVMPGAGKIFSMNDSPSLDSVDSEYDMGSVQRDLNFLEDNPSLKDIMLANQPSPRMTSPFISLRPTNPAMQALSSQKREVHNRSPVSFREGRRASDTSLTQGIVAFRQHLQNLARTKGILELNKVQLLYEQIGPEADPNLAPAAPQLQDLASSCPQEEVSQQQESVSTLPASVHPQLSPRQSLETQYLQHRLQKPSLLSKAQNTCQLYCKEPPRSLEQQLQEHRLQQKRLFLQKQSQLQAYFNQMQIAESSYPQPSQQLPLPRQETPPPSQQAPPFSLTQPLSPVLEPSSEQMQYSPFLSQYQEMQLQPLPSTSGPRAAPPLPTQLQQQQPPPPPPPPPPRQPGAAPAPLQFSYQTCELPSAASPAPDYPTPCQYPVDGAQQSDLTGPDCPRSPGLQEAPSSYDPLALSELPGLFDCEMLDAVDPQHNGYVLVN
Sequence of Inactive tyrosine-protein kinase PEAK1 (Homo sapiens) (Q9H792 whole entry): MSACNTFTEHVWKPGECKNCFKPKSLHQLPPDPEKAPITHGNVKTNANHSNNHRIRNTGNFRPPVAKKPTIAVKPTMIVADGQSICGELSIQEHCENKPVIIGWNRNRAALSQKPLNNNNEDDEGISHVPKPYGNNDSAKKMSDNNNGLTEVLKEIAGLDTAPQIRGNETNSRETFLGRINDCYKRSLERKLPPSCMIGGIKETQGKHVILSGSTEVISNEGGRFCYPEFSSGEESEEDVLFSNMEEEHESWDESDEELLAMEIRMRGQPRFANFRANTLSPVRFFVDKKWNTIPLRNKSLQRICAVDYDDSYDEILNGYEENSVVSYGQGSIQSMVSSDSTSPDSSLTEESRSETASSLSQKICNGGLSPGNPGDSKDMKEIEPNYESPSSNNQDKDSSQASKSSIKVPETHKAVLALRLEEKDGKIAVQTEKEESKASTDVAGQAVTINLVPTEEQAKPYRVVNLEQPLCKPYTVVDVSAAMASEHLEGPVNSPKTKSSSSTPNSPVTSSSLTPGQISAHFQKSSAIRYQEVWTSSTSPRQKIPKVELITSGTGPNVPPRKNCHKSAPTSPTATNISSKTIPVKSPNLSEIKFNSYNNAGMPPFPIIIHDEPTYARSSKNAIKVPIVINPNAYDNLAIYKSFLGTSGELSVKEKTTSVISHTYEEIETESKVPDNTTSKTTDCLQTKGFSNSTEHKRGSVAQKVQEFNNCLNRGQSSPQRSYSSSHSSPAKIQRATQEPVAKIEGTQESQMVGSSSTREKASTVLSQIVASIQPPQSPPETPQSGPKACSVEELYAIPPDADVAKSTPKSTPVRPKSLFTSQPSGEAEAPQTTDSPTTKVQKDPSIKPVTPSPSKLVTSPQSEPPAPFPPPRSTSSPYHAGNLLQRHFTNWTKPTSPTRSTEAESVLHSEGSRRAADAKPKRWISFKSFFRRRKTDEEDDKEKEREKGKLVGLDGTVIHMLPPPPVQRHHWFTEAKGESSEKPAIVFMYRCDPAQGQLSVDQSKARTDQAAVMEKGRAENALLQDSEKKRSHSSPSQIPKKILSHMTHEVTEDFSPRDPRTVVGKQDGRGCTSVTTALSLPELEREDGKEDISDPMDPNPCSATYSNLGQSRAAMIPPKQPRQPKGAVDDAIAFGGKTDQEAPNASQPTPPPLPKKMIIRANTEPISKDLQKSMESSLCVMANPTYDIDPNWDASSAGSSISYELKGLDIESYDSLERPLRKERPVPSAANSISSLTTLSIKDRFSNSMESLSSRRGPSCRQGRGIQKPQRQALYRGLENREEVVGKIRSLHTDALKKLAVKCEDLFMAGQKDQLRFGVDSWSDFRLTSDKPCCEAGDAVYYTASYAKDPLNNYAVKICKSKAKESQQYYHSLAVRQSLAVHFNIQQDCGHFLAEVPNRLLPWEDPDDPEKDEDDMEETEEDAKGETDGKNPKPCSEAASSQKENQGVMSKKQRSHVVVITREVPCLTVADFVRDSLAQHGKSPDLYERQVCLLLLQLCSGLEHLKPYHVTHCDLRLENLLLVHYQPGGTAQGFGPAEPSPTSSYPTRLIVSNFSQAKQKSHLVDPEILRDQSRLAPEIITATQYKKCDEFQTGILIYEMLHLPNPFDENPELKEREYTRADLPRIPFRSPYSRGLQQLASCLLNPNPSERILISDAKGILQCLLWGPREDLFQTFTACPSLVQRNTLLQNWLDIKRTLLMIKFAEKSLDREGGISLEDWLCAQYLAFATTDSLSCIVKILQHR

Structure (SMILES): COc1ccc(N2C(=O)COc3ccc(-c4cnc(OC)c(NS(=O)(=O)c5ccc(F)cc5)c4)cc32)cc1
- inhibition [1]: 19.8%
- inhibition [2]: 2.74%
- inhibition [3]: 22.4%
- inhibition [4]: 0.68%
- IC50 [5]: 9.2 nM
- inhibition [6]: 3.18%
- inhibition [7]: -2.21%
- inhibition [8]: 0.84%
- inhibition [9]: 5.31%
- inhibition [10]: 9.96%
- inhibition [11]: 0.03%
- inhibition [12]: -0.95%
- inhibition [13]: -2.98%
- inhibition [14]: 4.84%
- inhibition [15]: -3.9%
- inhibition [16]: 12.7%
- inhibition [17]: -3.42%
- inhibition [18]: 0.31%
- inhibition [19]: -1.84%
- inhibition [20]: -1.62%
- inhibition [21]: 2.59%
- inhibition [22]: -6.81%
- inhibition [23]: Dose-dependent effect
- inhibition [24]: -7.65%
- inhibition [25]: 10.4%
- inhibition [26]: 5.78%
- inhibition [27]: 14.8%
- inhibition [28]: 12.1%
- inhibition [29]: 17.5%
- inhibition [30]: -1.93%
- inhibition [31]: 6.26%
